In patent publication US5610143A, “Antibiotics GE 37468 A, B and C” (Gruppo Lepetit S.p.A., priority 1995, dated 1997):

Columns and labels:
[1] = test system: Staphylococcus aureus Smith; test: MIC by broth microdilution; assay type: cell-based; conditions: Iso-Sensitest broth, inoculum 10^4 CFU/ml, 20-24 h, 37° C.
[2] = test system: Enterococcus faecalis ATCC 7080; test: MIC by broth microdilution; assay type: cell-based; conditions: Iso-Sensitest broth, inoculum 10^4 CFU/ml, 20-24 h, 37° C.
[3] = test system: Propionibacterium acnes ATCC 6919; test: MIC by broth microdilution; assay type: cell-based; conditions: Wilkins-Chalgren broth, inoculum 10^5, 48 h, 37° C., N2:CO2:H2 (80:10:10)
[4] = test system: Staphylococcus aureus L165; conditions: Iso-Sensitest broth, inoculum 10^4 CFU/ml, 20-24 h, 37° C.
[5] = test system: Staphylococcus epidermidis ATCC 12228; conditions: Iso-Sensitest broth, inoculum 10^4 CFU/ml, 20-24 h, 37° C.
[6] = test system: Staphylococcus haemolyticus L602; conditions: Iso-Sensitest broth, inoculum 10^4 CFU/ml, 20-24 h, 37° C.
[7] = test system: Clostridium perfringens L290; conditions: Wilkins-Chalgren broth, inoculum 10^5, 48 h, 37° C., N2:CO2:H2 (80:10:10)
[8] = test system: Bacteroides fragiles ATCC 25285; conditions: Wilkins-Chalgren broth, inoculum 10^5, 48 h, 37° C., N2:CO2:H2 (80:10:10)
[9] = test system: Neisseria gonorrhoeae L997; conditions: GC Base broth +1% IsoVitalex, inoculum 10^4 CFU/ml, 48 h, 37° C., 5% CO2 in air
[10] = test system: Haemophilus influenzae ATCC 19418; conditions: Brain Heart Infusion broth +1% Supplement C, inoculum 10^4 CFU/ml, 48 h, 37° C., 5% CO2 in air
Escherichia coli L47 = conditions: Iso-Sensitest broth, inoculum 10^4 CFU/ml, 20-24 h, 37° C.
[11] = test system: Pseudomonas aeruginosa ATCC 10145; conditions: Iso-Sensitest broth, inoculum 10^4 CFU/ml, 20-24 h, 37° C.
[12] = test system: Proteus vulgaris ATCC 881; conditions: Iso-Sensitest broth, inoculum 10^4 CFU/ml, 20-24 h, 37° C.
Candida albicans L145 = conditions: phosphate buffered Yeast Nitrogen Base broth with glucose and L-asparagine, inoculum 10^4 CFU/ml, 20-24 h, 37° C.

Structure (SMILES)	M.I.C. [1] [microgram/ml]	M.I.C. [2] [microgram/ml]	M.I.C. [3] [microgram/ml]	M.I.C. [4] [microgram/ml]	M.I.C. [5] [microgram/ml]	M.I.C. [6] [microgram/ml]	M.I.C. [7] [microgram/ml]	M.I.C. [8] [microgram/ml]	M.I.C. [9] [microgram/ml]	M.I.C. [10] [microgram/ml]	M.I.C. (Escherichia coli L47) [microgram/ml]	M.I.C. [11] [microgram/ml]	M.I.C. [12] [microgram/ml]	M.I.C. (Candida albicans L145) [microgram/ml]
Cc1oc2nc1C(=O)NC(CC(N)=O)c1nc(cs1)C(=O)NC(Cc1ccccc1)C1=NC(CS1)C(=O)NC(Cc1ccc(O)cc1)C(=O)N1C(O)CC(C)C1c1nc(cs1)-c1nc(cs1)-c1nc(-c3nc(C(N)=O)cs3)ccc1-2 (stereo not shown) [GE37468B]	0.03	0.03	0.016	0.03	0.06	0.13	0.016	> 128	> 128	> 128	> 128	> 128	> 128	> 128
C=C(NC(=O)c1csc(-c2ccc3c(n2)-c2csc(n2)-c2csc(n2)C2C(C)CC(O)N2C(=O)C(Cc2ccc(O)cc2)NC(=O)C2CSC(=N2)C(Cc2ccccc2)NC(=O)c2csc(n2)C(CC(N)=O)NC(=O)c2nc-3oc2C)n1)C(N)=O (stereo not shown) [GE37468C]	0.03	0.03	0.016	0.03	0.25	0.13	0.016	> 128	> 128	> 128	> 128	> 128	> 128	> 128
